Data on 1 compound can be found in patent US9745324B2, “Iminothiadiazepane dioxide compounds as BACE inhibitors, compositions, and their use” (Merck Sharp & Dohme Corp., priority 2013, dated 2017).

The target in assay [1] is purified human autoBACE-2 (Homo sapiens, UniProt Q9Y5Z0). Put plainly: BACE-2 Assay (BACE-HTRF assay). The format is biochemical. Particulars: Ki calculated from IC50 using the Cheng-Prusoff equation; QSY7-EISEVNLDAEFC-Eu-amide substrate, pH 5.0; read-out: BACE2 Ki. As for the experimental part: DMSO is present at 5% final concentration in the assay. Following laser excitation of sample wells at 320 nm, the fluorescence signal at 620 nm is collected for 400 ms following a 50 μs delay on a RUBYstar HTRF plate reader (BMG Labtechnologies). Raw RFU data is normalized to maximum (1.0 nM BACE/DMSO) and minimum (no enzyme/DMSO) RFU values. […] The Ki values are calculated from the IC50 using the Cheng-Prusoff equation.

Assay [2] addresses soluble human BACE1 catalytic domain (Homo sapiens (Human), UniProt P56817). As to the kind of experiment: BACE1 HTRF FRET Assay. Particulars: Ki calculated from IC50 using the Cheng-Prusoff equation; QSY7-APPswe-Eu substrate, pH 5.0. The format is biochemical. An excerpt: Reagents: Na^+-Acetate pH 5.0; 1% Brij-35; Glycerol; Dimethyl Sulfoxide (DMSO); Recombinant human soluble BACE1 catalytic domain (>95% pure); APP Swedish mutant peptide substrate (QSY7-APP^swe-Eu): QSY7-[…]-Europium-amide (SEQ ID 1).
A homogeneous time-resolved FRET assay can be used to determine IC50 values for inhibitors of the soluble human BACE1 catalytic domain. This assay monitors the increase of 620 nm fluorescence that resulted from BACE1 cleavage of an APPswedish APP^swe mutant peptide FRET substrate (QSY7-[…]-Europium-amide (SEQ ID 1)). This substrate contains an N-terminal QSY7 moiety that serves as a quencher of the C-terminal Europium fluorophore (620 nm Em). […] Inhibition of BACE1 cleavage of the QSY7-APP^swe-Eu substrate by inhibitors is manifested as a suppression of 620 nm fluorescence.
Varying concentrations of inhibitors at 3× the final desired concentration in a volume of 10 ul are preincubated with purified human BACE1 catalytic domain (3 nM in 10 μl) for 30 minutes at 30° C. in reaction buffer containing 20 mM Na-Acetate pH 5.0, 10% glycerol, 0.1% Brij-35 and 7.5% DSMO. Reactions are initiated by addition of 10 μl of 600 nM QSY7-APP^swe-Eu substrate (200 nM final) to give a final reaction volume of 30 μl in a 384 well Nunc HTRF plate. The reactions are incubated at 30° C. for 1.5 hours. The 620 nm fluorescence is then read on a Rubystar HTRF plate reader (BMG Labtechnologies) using a 50 millisecond delay followed by a 400 millisecond acquisition time window. Inhibitor IC50 values are derived from non-linear regression analysis of concentration response curves.

purified human autoBACE-2, sequence (Q9Y5Z0 63-518 limits assumed): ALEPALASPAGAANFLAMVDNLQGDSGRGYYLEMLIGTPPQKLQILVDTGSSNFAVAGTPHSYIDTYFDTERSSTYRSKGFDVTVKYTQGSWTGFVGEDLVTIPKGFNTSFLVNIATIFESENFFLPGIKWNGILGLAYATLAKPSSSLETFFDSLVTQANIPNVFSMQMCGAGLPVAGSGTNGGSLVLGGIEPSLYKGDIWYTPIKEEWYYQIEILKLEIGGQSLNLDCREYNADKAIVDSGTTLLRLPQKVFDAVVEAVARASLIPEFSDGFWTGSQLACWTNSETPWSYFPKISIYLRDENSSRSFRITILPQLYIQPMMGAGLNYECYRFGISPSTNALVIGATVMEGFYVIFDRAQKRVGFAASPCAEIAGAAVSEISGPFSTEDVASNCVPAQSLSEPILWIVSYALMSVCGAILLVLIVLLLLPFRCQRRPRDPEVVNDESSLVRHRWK
soluble human BACE1 catalytic domain, sequence (P56817 75-416): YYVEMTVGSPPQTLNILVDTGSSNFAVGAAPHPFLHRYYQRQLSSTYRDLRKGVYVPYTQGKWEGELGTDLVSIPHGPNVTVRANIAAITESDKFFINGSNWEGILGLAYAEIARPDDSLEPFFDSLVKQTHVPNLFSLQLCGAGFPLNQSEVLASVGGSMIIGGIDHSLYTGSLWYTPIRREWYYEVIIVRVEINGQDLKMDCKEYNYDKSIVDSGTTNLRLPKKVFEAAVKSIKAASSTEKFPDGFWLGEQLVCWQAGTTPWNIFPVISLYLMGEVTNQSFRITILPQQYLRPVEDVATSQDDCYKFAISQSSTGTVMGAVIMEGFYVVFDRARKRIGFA

Turning to `Cc1nc(C(=O)Nc2ccc(F)c([C@]3(C)CN(C)S(=O)(=O)C(C)(C)C(=N)N3)c2)c(C)o1` [Example 32, N-{4-fluoro-3-[(4R)-6-imino-2,4,7,7-tetramethyl-1,1-dioxido-1,2,5-thiadiazepan-4-yl]phenyl}-2,5-dimethyl-1,3-oxazole-4-carboxamide], the Ki – broadly, a dissociation constant, usually derived from enzyme kinetics or from competition with a known ligand – in assay [1] is 0.054 µM; in assay [2], 0.165 µM.
